Laboratory results published in patent US6911418B2, “Method for treating a subterranean formation” (Schlumberger Technology Corporation, priority 2001, dated 2005).

Experiment: pH resulting from the aqueous mixture
Type: physicochemical
Details: 20 percent tetrasodium, 28 percent dipotassium, 21 percent diammonium mixtures
Procedure: Calcium carbonate was stirred into each mixture until saturation was achieved. The amount of calcium carbonate dissolution was then determined by inductively coupled plasma.

Substance: tetrasodium ethylenediamine tetraacetate
- pH of aqueous mixture: about 12
